# Source: ChEMBL document CHEMBL2424541, “Anti-inflammatory effects of extracellular cyclosporins are exclusively mediated by CD147” (J Med Chem, 2013)
# Activity calls are given as the source filed them. The calls are words filed in the database; no cut-off is given here.
# Columns and labels:
# [1] = (§1) Cellular uptake in human Jurkat T cells assessed as displacemnet of [O-(2-acetamido)-D-serine]8-cyclosporine N-{(5-aminopentyl)-[2,3,6,7-tetrahydro-11-oxo-1H,5H,11Hbenzopyrano(6,7,8-ij)quinolizine-10-carboxyl amide] from intracellular compartments after 90 mins by flow cytometric analysis; type: ADME, cell-based; conditions: 1.5 h
# [2] = Inhibition of calcineurin phosphatase activity (unknown origin) assessed as R2 phosphopeptide dephosphorylation after 30 mins by malachite green staining assay in presence of calmodulin and CypA
# Homo sapiens = species on record: Homo sapiens; experiment: Inhibition of calcineurin phosphatase activity (unknown origin) assessed as R2 phosphopeptide dephosphorylation up to 10 uM after 30 mins by malachite green staining assay in presence of calmodulin and CypA
# [3] = biological target: T1, Peptidyl-prolyl cis-trans isomerase A (Homo sapiens, UniProt P62937); experiment: Inhibition of CypA PPIase activity (unknown origin) using Glt-(Ala)n-Pro-Phe-4-nitroanilides as substrate
# Target sequence in this assay (P62937 whole entry): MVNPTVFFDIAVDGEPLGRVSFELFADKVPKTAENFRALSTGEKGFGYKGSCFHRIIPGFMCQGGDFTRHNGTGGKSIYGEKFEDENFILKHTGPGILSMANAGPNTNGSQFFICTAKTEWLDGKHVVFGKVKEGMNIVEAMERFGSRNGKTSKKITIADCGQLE
# Mus musculus [4] = experiment: In vivo inhibition of extracellular cyclophilin-mediated monocytes recruitment in peritoneal fluid in thioglycollate challenged CD147-deficient C57BL6 mouse peritonitis model at 20 mg/kg, ip administered 3 hrs before thioglycollate challenge measured after 18 hrs; type: functional, organism-based; parameters: dose 20 mg/kg
# [5] = as §1, with “compartments at 50 fold excess” for “compartments”; type: ADME, cell-based; conditions: 1.5 h
# Mus musculus [6] = experiment: In vivo inhibition of extracellular cyclophilin-mediated CD3+ T cells infiltration into TNCB challenged ear in CD147-deficient C57BL6 mouse allergic contact hypersensitivity model at 4 mg/kg, ip bid administered on day 4 to 6 prior to TNCB challenge by immunohistochemical analysis; type: functional, organism-based; parameters: dose 4 mg/kg; conditions: T-cell
# Mus musculus [7] = experiment: In vivo inhibition of extracellular cyclophilin-mediated CD11b+ myeloid cells infiltration into TNCB challenged ear in CD147-deficient C57BL6 mouse allergic contact hypersensitivity model at 4 mg/kg, ip bid administered on day 4 to 6 prior to TNCB challenge by immunohistochemical analysis; type: functional, organism-based; parameters: dose 4 mg/kg
# Mus musculus [8] = experiment: In vivo inhibition of extracellular cyclophilin-mediated ear swelling in CD147-deficient TNCB challenged C57BL6 mouse at 4 mg/kg, ip bid administered on day 4 to 6; type: functional, organism-based; parameters: dose 4 mg/kg
# Mus musculus [9] = experiment: In vivo inhibition of extracellular cyclophilin-mediated neutrophil recruitment in peritoneal fluid in thioglycollate challenged CD147-deficient C57BL6 mouse peritonitis model at 20 mg/kg, ip administered 3 hrs before thioglycollate challenge measured after 18 hrs; type: functional, organism-based; parameters: dose 20 mg/kg
# Leukocyte [10] = experiment: Effect on fmlp-induced CD147-deficient mouse leukocytes migration from bone marrow; type: functional
# Leukocyte [11] = experiment: Effect on FCS-induced CD147-deficient mouse leukocytes migration from bone marrow; type: functional
# Leukocyte [12] = experiment: Effect on fmlp-induced wild type mouse leukocytes migration from bone marrow; type: functional
# Leukocyte [13] = experiment: Effect on FCS-induced wild type mouse leukocytes migration from bone marrow; type: functional
# Mus musculus [14] = experiment: In vivo inhibition of extracellular cyclophilin-mediated CD11b+ myeloid cells infiltration into TNCB challenged ear in C57BL6 mouse allergic contact hypersensitivity model at 4 mg/kg, ip bid administered on day 4 to 6 prior to TNCB challenge by immunohistochemical analysis; type: functional, organism-based; parameters: dose 4 mg/kg
# Mus musculus [15] = experiment: In vivo inhibition of extracellular cyclophilin-mediated ear swelling in TNCB challenged C57BL6 mouse allergic contact hypersensitivity model at 4 mg/kg, ip bid administered on day 4 to 6 measured after 24 hrs; type: functional, organism-based; parameters: dose 4 mg/kg
# Mus musculus [16] = experiment: In vivo inhibition of extracellular cyclophilin-mediated MMP-9 secretion in peritoneal fluid in thioglycollate challenged C57BL6 mouse peritonitis model at 20 mg/kg, ip administered for 3 hrs before thioglycollate challenge by gelatin zymographic analysis; type: functional, organism-based; parameters: dose 20 mg/kg
# Mus musculus [17] = experiment: In vivo inhibition of extracellular cyclophilin-mediated IL-6 secretion in peritoneal fluid in thioglycollate challenged C57BL6 mouse peritonitis model at 20 mg/kg, ip administered for 3 hrs before thioglycollate challenge by ELISA; type: functional, organism-based; parameters: dose 20 mg/kg
# Mus musculus [18] = experiment: In vivo inhibition of extracellular cyclophilin-mediated neutrophils recruitment in peritoneal fluid of thioglycollate challenged C57BL6 mouse peritonitis model at 20 mg/kg, ip administered 3 hrs before thioglycollate challenge measured after 18 hrs; type: functional, organism-based; parameters: dose 20 mg/kg
# Mus musculus [19] = experiment: In vivo inhibition of extracellular cyclophilin-mediated monocytes recruitment in peritoneal fluid of thioglycollate challenged C57BL6 mouse peritonitis model at 20 mg/kg, ip administered 3 hrs before thioglycollate challenge measured after 18 hrs; type: functional, organism-based; parameters: dose 20 mg/kg
# [20] = biological target: Peptidyl-prolyl cis-trans isomerase C (Homo sapiens, UniProt P45877); experiment: Inhibition of CypC PPIase activity (unknown origin)
# Mus musculus [21] = experiment: In vivo inhibition of extracellular cyclophilin-mediated CD3+ T cells infiltration into TNCB challenged ear in C57BL6 mouse allergic contact hypersensitivity model at 4 mg/kg, ip bid administered on day 4 to 6 prior to TNCB challenge by immunohistochemical analysis; type: functional, organism-based; parameters: dose 4 mg/kg; conditions: T-cell
# [22] = biological target: T1, Peptidyl-prolyl cis-trans isomerase A; conditions: 1 uM
# Target sequence in this assay (P62937 whole entry, looked up): as the sequence (P62937 whole entry) above
# Description: Inhibition of recombinant human CypA-mediated CD147-deficient leukocyte migration from mouse bone marrow at 1 uM after 2 hrs
# [23] = biological target: T1, Peptidyl-prolyl cis-trans isomerase A; conditions: Spleen, T-cell, 1 uM
# Target sequence in this assay (P62937 whole entry, looked up): as the sequence (P62937 whole entry) above
# Description: Inhibition of recombinant human CypA-mediated PMA/ionomycin-induced CD3+ T cell migration from mouse spleen at 1 uM after 2 hrs
# [24] = biological target: T1, Peptidyl-prolyl cis-trans isomerase A; conditions: myeloid, 1 uM
# Target sequence in this assay (P62937 whole entry, looked up): as the sequence (P62937 whole entry) above
# Description: Inhibition of recombinant human CypA-mediated CD11b+ myeloid cell migration from mouse bone marrow at 1 uM after 2 hrs
# [25] = biological target: T1, Peptidyl-prolyl cis-trans isomerase A; conditions: 1 uM; remark: listed apart in the source
# Target sequence in this assay (P62937 whole entry, looked up): as the sequence (P62937 whole entry) above
# Description: Inhibition of recombinant human CypA-mediated leukocyte migration from mouse bone marrow at 1 uM after 2 hrs
# [26] = biological target: T1, Peptidyl-prolyl cis-trans isomerase A; conditions: HeLa, 2 uM
# Target sequence in this assay (P62937 whole entry, looked up): as the sequence (P62937 whole entry) above
# Description: Inhibition of CypA-mediated ERK phosphorylation in serum-starved human HeLa cells at 2 uM after 5 mins by Western blotting analysis
# Sequence of Peptidyl-prolyl cis-trans isomerase C (P45877 whole entry): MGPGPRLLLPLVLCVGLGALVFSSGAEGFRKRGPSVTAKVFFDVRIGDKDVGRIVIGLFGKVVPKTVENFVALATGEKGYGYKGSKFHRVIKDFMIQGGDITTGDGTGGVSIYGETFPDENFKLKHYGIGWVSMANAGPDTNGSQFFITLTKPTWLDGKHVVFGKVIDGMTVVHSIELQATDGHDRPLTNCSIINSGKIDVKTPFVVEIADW
smiles,measurement,setting,value
CC[C@@H]1NC(=O)[C@H]([C@H](O)[C@H](C)Cc2nc3ccccc3c(=O)[nH]2)N(C)C(=O)[C@H](C(C)C)N(C)C(=O)[C@H](CC(C)C)N(C)C(=O)[C@H](CC(C)C)N(C)C(=O)[C@@H](C)NC(=O)[C@H](C)NC(=O)[C@H](CC(C)C)N(C)C(=O)[C@H](C(C)C)NC(=O)[C@H](CC(C)C)N(C)C(=O)CN(C)C1=O,Drug uptake,[1],Active
same,IC50,[2],4.6 µM
CC[C@@H]1NC(=O)[C@H]([C@H](O)[C@H](C)CC2=Nc3ccccc3CN2)N(C)C(=O)[C@H](C(C)C)N(C)C(=O)[C@H](CC(C)C)N(C)C(=O)[C@H](CC(C)C)N(C)C(=O)[C@@H](C)NC(=O)[C@H](C)NC(=O)[C@H](CC(C)C)N(C)C(=O)[C@H](C(C)C)NC(=O)[C@H](CC(C)C)N(C)C(=O)CN(C)C1=O,Drug uptake,[1],Active
same,inhibition,Homo sapiens,inactive
CC[C@@H]1NC(=O)[C@H]([C@H](O)[C@H](C)Cc2nc3ccc(C(=O)OC)cc3[nH]2)N(C)C(=O)[C@H](C(C)C)N(C)C(=O)[C@H](CC(C)C)N(C)C(=O)[C@H](CC(C)C)N(C)C(=O)[C@@H](C)NC(=O)[C@H](C)NC(=O)[C@H](CC(C)C)N(C)C(=O)[C@H](C(C)C)NC(=O)[C@H](CC(C)C)N(C)C(=O)CN(C)C1=O,Drug uptake,[1],Active
same,IC50,[2],6.9 µM
same,Ki,[3],0.0118 µM
CC[C@@H]1NC(=O)[C@H]([C@H](O)[C@H](C)Cc2nc3ccccc3[nH]2)N(C)C(=O)[C@H](C(C)C)N(C)C(=O)[C@H](CC(C)C)N(C)C(=O)[C@H](CC(C)C)N(C)C(=O)[C@@H](C)NC(=O)[C@H](C)NC(=O)[C@H](CC(C)C)N(C)C(=O)[C@H](C(C)C)NC(=O)[C@H](CC(C)C)N(C)C(=O)CN(C)C1=O,Drug uptake,[1],Active
same,IC50,[2],1.2 µM
CC[C@@H]1NC(=O)[C@H]([C@H](O)[C@H](C)Cc2nc3ccc(C(=O)O)cc3[nH]2)N(C)C(=O)[C@H](C(C)C)N(C)C(=O)[C@H](CC(C)C)N(C)C(=O)[C@H](CC(C)C)N(C)C(=O)[C@@H](C)NC(=O)[C@H](C)NC(=O)[C@H](CC(C)C)N(C)C(=O)[C@H](C(C)C)NC(=O)[C@H](CC(C)C)N(C)C(=O)CN(C)C1=O,inhibition,Mus musculus [4],inactive
same,Drug uptake,[5],Not Active
same,inhibition,Mus musculus [6],inactive
same,inhibition,Mus musculus [7],inactive
same,inhibition,Mus musculus [8],inactive
same,inhibition,Mus musculus [9],inactive
same,Activity,Leukocyte [10],inactive
same,Activity,Leukocyte [11],inactive
same,Activity,Leukocyte [12],inactive
same,Activity,Leukocyte [13],inactive
same,inhibition,Mus musculus [14],Active
same,inhibition,Mus musculus [15],Active
same,inhibition,Mus musculus [16],Active
same,inhibition,Mus musculus [17],Active
same,inhibition,Mus musculus [18],Active
same,inhibition,Mus musculus [19],Active
same,inhibition,Homo sapiens,inactive
same,Ki,[20],0.118 µM
same,Ki,[3],0.0107 µM
same,inhibition,Mus musculus [21],Active
same,inhibition,[22],inactive
same,inhibition,[23],Active
same,inhibition,[24],Active
same,inhibition,[25],Active
same,inhibition,[26],Active
CC[C@@H]1NC(=O)[C@H]([C@H](O)[C@H](C)Cc2nc3ccc(C)cc3[nH]2)N(C)C(=O)[C@H](C(C)C)N(C)C(=O)[C@H](CC(C)C)N(C)C(=O)[C@H](CC(C)C)N(C)C(=O)[C@@H](C)NC(=O)[C@H](C)NC(=O)[C@H](CC(C)C)N(C)C(=O)[C@H](C(C)C)NC(=O)[C@H](CC(C)C)N(C)C(=O)CN(C)C1=O,Drug uptake,[1],Active
same,IC50,[2],3.4 µM
same,Ki,[3],0.0124 µM
CC[C@@H]1NC(=O)[C@H]([C@H](O)[C@H](C)Cc2nc3ccc(C(C)C)cc3[nH]2)N(C)C(=O)[C@H](C(C)C)N(C)C(=O)[C@H](CC(C)C)N(C)C(=O)[C@H](CC(C)C)N(C)C(=O)[C@@H](C)NC(=O)[C@H](C)NC(=O)[C@H](CC(C)C)N(C)C(=O)[C@H](C(C)C)NC(=O)[C@H](CC(C)C)N(C)C(=O)CN(C)C1=O,Drug uptake,[1],Active
same,IC50,[2],> 10 µM
same,Ki,[3],0.0439 µM
CC[C@@H]1NC(=O)[C@H]([C@H](O)[C@H](C)Cc2nc3ccccc3s2)N(C)C(=O)[C@H](C(C)C)N(C)C(=O)[C@H](CC(C)C)N(C)C(=O)[C@H](CC(C)C)N(C)C(=O)[C@@H](C)NC(=O)[C@H](C)NC(=O)[C@H](CC(C)C)N(C)C(=O)[C@H](C(C)C)NC(=O)[C@H](CC(C)C)N(C)C(=O)CN(C)C1=O,Drug uptake,[1],Active
same,IC50,[2],4.5 µM
same,Ki,[3],0.0366 µM
